US7544683B2, “Cyclohexyl derivatives” (Hoffmann-La Roche Inc., priority 2007, dated 2009)

Molecular target: T1, histamine 3 receptor (H3R) (Homo sapiens, UniProt Q9Y5N1)
T1 construct: expressed in transfected cells; host or cells: CHO cells
Assay: Binding assay with 3H-(R)α-methylhistamine, competition binding on membranes of the human H3R-CHO cell line
Details: competition with 3H(R)α-methylhistamine (1 nM), Ki calculated from IC50 by Cheng-Prusoff
Protocol: Binding Assay with ^3H-(R)α-methylhistamine
Saturation binding experiments were performed using HR3-CHO membranes prepared as described in Takahashi, K, Tokita, S., Kotani, H. (2003) J. Pharmacol. Exp. Therapeutics 307, 213-218.
An appropriate amount of membrane (60 to 80 μg protein/well) was incubated with increasing concentrations of ^3H(R)α-Methylhistamine di-hydrochloride (0.10 to 10 nM). Non specific binding was determined using a 200 fold excess of cold (R)α-Methylhistamine dihydrobromide (500 nM final concentration). The incubation was carried out at room temperature (in deep-well plates shaking for three hours). The final volume in each well was 250 μl. The incubation was followed by rapid filtration on GF/B filters (pre-soaked with 100 μl of 0.5% PEI in Tris 50 mM shaking at 200 rpm for two hours). The filtration was made using a cell-harvester and the filter plates were then washed five times with ice cold washing buffer containing 0.5 M NaCl. After harvesting, the plates were dried at 55° C. for 60 min, then we added scintillation fluid (Microscint 40, 40 microl in each well) and the amount of radioactivity on the filter was determined in Packard top-counter after shaking the plates for two hours at 200 rpm at room temperature.
Binding Buffer: 50 mM Tris-HCl pH 7.4 and 5 mM MgCl2×6H2O pH 7.4. Washing Buffer: 50 mM Tris-HCl pH 7.4 and 5 mM MgCl2×6H2O and 0.5 M NaCl pH 7.4.
Indirect measurement of affinity of H3R inverse agonists: twelve increasing concentrations (ranging from 10 μM to 0.3 nM) of the selected compounds were always tested in competition binding experiments using membrane of the human H3R-CHO cell line. An appropriate amount of protein, e.g. approximately 500 cpm binding of RAMH at Kd, were incubated for 1 hour at room temperature in 250 μl final volume in 96-well plates in presence of ^3H(R)α-methylhistamine (1 nM final concentration=Kd). Non-specific binding was determined using a 200 fold excess of cold (R)α-methylhistamine dihydrobromide.
All compounds were tested at a single concentration in duplicate. […] The concentration at which 50% inhibition of the radioligand ^3H(R)α-methylhistamine is obtained (the IC50) is determined from the linear regression of a plot of the logarithm of the concentration versus percent inhibition measured for the different concentrations. Ki's were calculated from IC50 based on Cheng-Prusoff equation (Cheng, Y, Prusoff, W H (1973) Biochem Pharmacol 22, 3099-3108): Ki=IC50/[1+D/Kd] wherein D is the concentration of the radioligand and Kd is the binding constant for the radioligand binding to the receptor under the conditions used in the competition experiment.

T1 sequence (Q9Y5N1 whole entry): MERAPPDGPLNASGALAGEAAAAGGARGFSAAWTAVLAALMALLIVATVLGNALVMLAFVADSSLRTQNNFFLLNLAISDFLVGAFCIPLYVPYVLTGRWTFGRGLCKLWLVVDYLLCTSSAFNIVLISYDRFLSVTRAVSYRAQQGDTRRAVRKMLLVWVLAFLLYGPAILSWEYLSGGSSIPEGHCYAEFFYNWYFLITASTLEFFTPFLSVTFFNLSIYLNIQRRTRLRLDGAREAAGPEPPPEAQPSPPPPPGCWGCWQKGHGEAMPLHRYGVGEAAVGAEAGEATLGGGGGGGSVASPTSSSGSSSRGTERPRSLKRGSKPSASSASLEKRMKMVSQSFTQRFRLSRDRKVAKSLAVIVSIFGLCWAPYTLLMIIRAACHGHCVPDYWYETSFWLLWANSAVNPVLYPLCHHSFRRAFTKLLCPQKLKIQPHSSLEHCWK

Row | SMILES | Ki
1 | O=C([C@H]1CC[C@H](Oc2ccc(-n3cncn3)cc2)CC1)N1CCN(C2CCC2)CC1 [Example 1, Trans-(4-Cyclobutyl-piperazin-1-yl)-[4-(4-[1,2,4]triazol-1-yl-phenoxy)-cyclohexyl]-methanone] | 6.5 nM
2 | CS(=O)(=O)c1ccc(O[C@H]2CC[C@H](C(=O)N3CCN(C4CCC4)CC3)CC2)nc1 [Example 13, trans-(4-Cyclobutyl-piperazin-1-yl)-[4-(5-methanesulfonyl-pyridin-2-yloxy)-cyclohexyl]-methanone] | 11.2 nM
3 | CNC(=O)c1csc(O[C@H]2CC[C@H](C(=O)N3CCN(C(C)C)CC3)CC2)n1 [Example 27, trans-2-[4-(4-Isopropyl-piperazine-1-carbonyl)-cyclohexyloxy]-thiazole-4-carboxylic acid methylamide] | 28.8 nM
4 | CC(C)c1nnc(-c2ccc(O[C@H]3CC[C@H](C(=O)N4CCN(C(C)C)CC4)CC3)cc2)o1 [Example 31, trans-{4-[4-(5-Isopropyl-[1,3,4]oxadiazol-2-yl)-phenoxy]-cyclohexyl}-(4-isopropyl-piperazin-1-yl)-methanone] | 5.6 nM
5 | O=C1COCCN1c1ccc(O[C@H]2CC[C@H](C(=O)N3CCN(C4CCC4)CC3)CC2)cc1 [Example 42, trans-4-{4-[4-(4-Cyclobutyl-piperazine-1-carbonyl)-cyclohexyloxy]-phenyl}-morpholin-3-one] | 6.9 nM
6 | CC(C)N1CCN(C(=O)[C@H]2CC[C@H](Oc3ccc(-c4ccncc4)cc3)CC2)CC1 [Example 50, trans-(4-Isopropyl-piperazin-1-yl)-[4-(4-pyridin-4-yl-phenoxy)-cyclohexyl]-methanone] | 4.4 nM
